Biological target: T1, TAK1-D (Homo sapiens, UniProt O43318)
T1 sequence (O43318 1-491 isoform O43318-4): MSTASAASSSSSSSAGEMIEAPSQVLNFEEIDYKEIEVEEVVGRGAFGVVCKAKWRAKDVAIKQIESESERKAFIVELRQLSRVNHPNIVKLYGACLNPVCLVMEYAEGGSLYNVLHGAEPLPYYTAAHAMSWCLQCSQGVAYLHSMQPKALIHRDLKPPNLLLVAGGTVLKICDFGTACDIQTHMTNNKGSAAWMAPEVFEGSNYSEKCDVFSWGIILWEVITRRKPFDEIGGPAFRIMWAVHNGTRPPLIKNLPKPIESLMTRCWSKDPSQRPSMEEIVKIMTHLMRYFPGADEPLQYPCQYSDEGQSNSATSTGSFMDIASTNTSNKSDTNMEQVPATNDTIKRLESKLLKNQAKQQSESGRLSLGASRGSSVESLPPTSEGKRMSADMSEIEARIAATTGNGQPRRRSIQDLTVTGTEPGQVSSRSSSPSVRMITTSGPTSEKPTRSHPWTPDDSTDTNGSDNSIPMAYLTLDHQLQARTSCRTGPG
Experiment: Subcellular localization of TAK1-D in H460 cells (fractionation, immunofluorescence)
Type: cell-based
Design: endogenous in cells; host or cells: NCI-H460
Description: Subcellular fractionation. About […] H460 cells growing in a 10 cm dish were transfected with 20 nM dsRNA si5 or si6. […] A crude nuclear pellet (P.7) was obtained by centrifugation at 700 g and 4° C. for 5 minutes. The supernatant was centrifuged at 10,000 g and 4° C. for 30 minutes producing the P10 pellet and finally separated by ultracentrifugation (Sorvall 90SE ultracentrifuge and Sorvall AH-629 rotor) at 150,000 g and 4° C. for 1 hour into pellet (P150) and supernatant (S150). Proteins from the S150 fraction were concentrated by precipitation with 10% trichloroacetic acid (TCA). All pellets were dissolved in SDS sample buffer.
Immunofluorescence. H460 cells stably expressing TAK1-D fused on its c-terminus to a FLAG tag were generated as described above for the K36W mutant. Cells were transfected with 20 nM si5 or si6 and fixed in 4% formaldehyde 6 h later. After 15 min of fixation at room temperature cells were washed 3 times in PBS and permeabilized in methanol at −20° C. for 10 min. After one wash in PBS slides were blocked for 1 hour at room temperature in PBS containing 1% BSA. […] After three 5 min washes in PBS cells were visualized by fluorescence microscopy. […]

si5: 21-mer siRNA against TLK1 mRNA: GGCUUUUGACCUUUAUGAAtt (SEQ ID NO: 2) / ttCCGAAAACUGGAAAUACUU (SEQ ID NO: 3) (sense GGCUUUUGACCUUUAUGAATT; antisense TTCCGAAAACUGGAAAUACUU; chemistry not given here; one strand is listed 3' to 5')
colocalization of FLAG-TAK1-D and ribosomes (S6) (H460, 20 nM, 6 h, immunofluorescence): increased colocalization
amount of TAK1-D in the 150,000 g pellet (H460, 4 h, compared to control si6): increased
